For test [1], the target named is GluD2-A654T receptor. Further details: method as in PMID 12606689. As to conditions: read-out: Pentamidine IC50; cited from earlier work.
The target in test [2] is T1, GluD1-R341Q (Homo sapiens, UniProt Q9ULK0, R341Q).
T1 construct: expressed in transfected cells; host or cells: Xenopus laevis oocytes injected with cRNA
T1 sequence (Q9ULK0 21-1009 R341Q): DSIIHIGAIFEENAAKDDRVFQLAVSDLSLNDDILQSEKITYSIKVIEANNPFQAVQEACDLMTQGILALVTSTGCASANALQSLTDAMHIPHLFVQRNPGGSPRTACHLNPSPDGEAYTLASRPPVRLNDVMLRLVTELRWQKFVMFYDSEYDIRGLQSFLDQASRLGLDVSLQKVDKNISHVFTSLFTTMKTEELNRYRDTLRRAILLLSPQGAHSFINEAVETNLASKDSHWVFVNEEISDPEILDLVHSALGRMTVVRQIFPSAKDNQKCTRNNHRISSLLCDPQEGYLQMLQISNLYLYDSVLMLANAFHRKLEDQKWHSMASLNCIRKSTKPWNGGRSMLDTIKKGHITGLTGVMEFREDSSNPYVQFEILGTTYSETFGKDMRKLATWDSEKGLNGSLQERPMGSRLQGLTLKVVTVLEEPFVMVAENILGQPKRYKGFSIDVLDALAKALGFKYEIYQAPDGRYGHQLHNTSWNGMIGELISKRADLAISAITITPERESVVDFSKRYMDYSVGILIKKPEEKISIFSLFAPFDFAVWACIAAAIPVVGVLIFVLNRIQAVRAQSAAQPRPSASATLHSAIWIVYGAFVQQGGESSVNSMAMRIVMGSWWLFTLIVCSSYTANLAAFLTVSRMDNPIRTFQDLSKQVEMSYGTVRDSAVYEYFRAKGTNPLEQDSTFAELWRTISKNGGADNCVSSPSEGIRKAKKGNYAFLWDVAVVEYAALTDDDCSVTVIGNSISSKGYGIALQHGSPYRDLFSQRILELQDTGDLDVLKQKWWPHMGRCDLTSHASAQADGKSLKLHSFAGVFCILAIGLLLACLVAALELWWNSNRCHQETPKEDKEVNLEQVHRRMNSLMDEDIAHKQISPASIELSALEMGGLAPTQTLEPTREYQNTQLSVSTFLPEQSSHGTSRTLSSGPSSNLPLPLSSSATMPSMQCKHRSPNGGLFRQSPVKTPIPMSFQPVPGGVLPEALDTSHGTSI
Put plainly: TEVC of constitutive current, Xenopus oocytes expressing GluD1-R341Q. Type of test: cell-based.

Test [3] addresses T2, GluD1-WT (Homo sapiens, UniProt Q9ULK0).
T2 construct: expressed in transfected cells; host or cells: Xenopus laevis oocytes injected with cRNA
T2 sequence (Q9ULK0 21-1009): T1 sequence (Q9ULK0 21-1009 R341Q) with Q321R
Put plainly: TEVC of constitutive current, Xenopus oocytes expressing GluD1-WT. The format is cell-based. As to conditions: positive = increase, negative = decrease of activity.

Where a chain is given by its changes, count along the chain named. pIC50: −log10 of the molar value.

The term pIC50 denotes −log10 of the IC50, conventionally taken in molar units. Regarding `N=C(N)c1ccc(OCCCCCOc2ccc(C(=N)N)cc2)cc1` [Pentamidine, pentamidine], the negative logarithm of the IC50 (pIC50) in test [1] was 4.96. In addition, the “Pentamidine effect (Baseline −100 μM Pentamidine)” value in test [2] (100 μM pentamidine, positive = increase, negative = decrease of activity) is 64 ± 15 (6) nA; in test [3] (100 μM pentamidine) it was 37 ± 11 (14) nA.
Take `N[C@H](CO)C(=O)O` [D-serine]: in test [2], the “Effect on current, in words” value is listed as “insensitive”. In addition, the “D-Serine effect (Baseline −10 mM D-Serine)” value was 7.2 ± 1.8 (6) nA in test [2] (10 mM D-serine, positive = increase, negative = decrease of activity) and 2.3 ± 2.9 (13) nA in test [3] (10 mM D-serine).
